Experimental data from US8664244B2, “Compounds as c-Met kinase inhibitors” (Advenchen Pharmaceuticals, LLC, priority 2010, dated 2014).
Like-named read-outs stand apart in the source and are kept apart here.

Columns and labels:
Type in all cases: cell-based
SHG44 = experiment: Tumor cell line inhibition, SHG44
A549 = experiment: Tumor cell line inhibition, A549
PC-3M = experiment: Tumor cell line inhibition, PC-3M; conditions: PC-3M tumor cell line

Compound | IC50 (SHG44) | IC50 (A549) | IC50 (PC-3M) | IC50 (SHG44; SHG-44) | IC50 (A549; Homo sapiens) | IC50 (PC-3M; Homo sapiens)
COc1ccc(COC(=O)NC2(COc3cc4nccc(Oc5ccc(NC(=O)C6(C(=O)Nc7ccc(F)cc7)CC6)cc5F)c4cc3OC)CC2)cc1 [Example 1, 4-methoxybenzyl-1-((4-(2-fluoro-4-(1-(4-fluorophenylcarbamoyl)cyclopropanecarboxamido)-phenoxy)-6-methoxyquinolin-7-yloxy)methyl)cyclopropylcarbamate] | 5.74 µM | 3.32 µM | 35.6 µM | – | – | –
COc1cc2c(Oc3ccc(N(C(=O)C4(C(N)=O)CC4)c4ccc(F)cc4)cc3F)ccnc2cc1OCC1(NC2CCOCC2)CC1 [Example 3, N-(3-fluoro-4-(6-methoxy-7-((1-(tetrahydro-2H-pyran-4-ylamino)cyclopropyl)methoxy)quinolin-4-yloxy)phenyl)-N-(4-fluorophenyl)cyclopropane-1,1-dicarboxamide] | – | – | – | 0.199 µM | 0.0407 µM | 4.89 µM
COc1ccc(COC(=O)NC2(COc3cc4nccc(Oc5ccc(NC(=O)C6(C(=O)Nc7ccc(F)c(F)c7)CC6)c(F)c5)c4cc3OC)CC2)cc1 [Example 7, 4-methoxybenzyl 1-((4-(4-(1-(3,4-difluorophenylcarbamoyl)cyclopropanecarboxamido)-3-fluoro-phenoxy)-6-methoxyquinolin-7-yloxy)methyl)cyclopropylcarbamate] | – | – | – | 39.1 µM | 36 µM | 51 µM
COc1cc2c(Oc3ccc(N(C(=O)C4(C(N)=O)CC4)c4ccc(F)c(F)c4)c(F)c3)ccnc2cc1OCC1(NC2CCOCC2)CC1 [Example 9, N-(3,4-difluorophenyl)-N-(2-fluoro-4-(6-methoxy-7-((1-(tetrahydro-2H-pyran-4-ylamino)-cyclopropyl)methoxy)quinolin-4-yloxy)phenyl)cyclopropane-1,1-dicarboxamide] | – | – | – | 2.18 µM | 2.22 µM | 6.02 µM
COc1cc2c(Oc3ccc(N(C(=O)C4(C(N)=O)CC4)c4ccc(F)c(F)c4)c(F)c3)ccnc2cc1OCC1(NCC2CC2)CC1 [Example 11, N-(4-(7-((1-(cyclopropylmethylamino)cyclopropyl)methoxy)-6-methoxyquinolin-4-yloxy)-2-fluorophenyl)-N-(3,4-difluorophenyl)cyclopropane-1,1-dicarboxamide] | – | – | – | 0.589 µM | 0.0659 µM | 16.1 µM
COc1ccc(COC(=O)NC2(COc3cc4nccc(Oc5ccc(NC(=O)C6(C(=O)Nc7ccccc7)CC6)cc5F)c4cc3OC)CC2)cc1 [Example 13, 4-methoxybenzyl 1-((4-(4-(1-(phenylcarbamoyl)cyclopropanecarboxamido)-2-fluoro-phenoxy)-6-methoxyquinolin-7-yloxy)methyl)cyclopropylcarbamate] | – | – | – | 26 µM | 45.4 µM | 53.2 µM
COc1cc2c(Oc3ccc(N(C(=O)C4(C(N)=O)CC4)c4ccccc4)c(F)c3)ccnc2cc1OCC1(N)CC1 [Example 14, N-(4-(7-((1-aminocyclopropyl)methoxy)-6-methoxyquinolin-4-yloxy)-2-fluorophenyl)-N-(phenyl)cyclopropane-1,1-dicarboxamide] | – | – | – | 1.41 µM | 0.549 µM | 12.5 µM
